Test results reported in US10738031B2, “N-[(heteroaryloxy)propanyl]heteroaryl carboxamides as antagonists of orexin subtype 1 receptor activity” (Boehringer Ingelheim International GmbH, priority 2016, dated 2020).
Where two headings read alike, the source gives them in different places.

Key:
OX2R [1] = biological target: T1, OX2R (Homo sapiens, UniProt O43614); details: cited from earlier work
T1 sequence (O43614 1-444): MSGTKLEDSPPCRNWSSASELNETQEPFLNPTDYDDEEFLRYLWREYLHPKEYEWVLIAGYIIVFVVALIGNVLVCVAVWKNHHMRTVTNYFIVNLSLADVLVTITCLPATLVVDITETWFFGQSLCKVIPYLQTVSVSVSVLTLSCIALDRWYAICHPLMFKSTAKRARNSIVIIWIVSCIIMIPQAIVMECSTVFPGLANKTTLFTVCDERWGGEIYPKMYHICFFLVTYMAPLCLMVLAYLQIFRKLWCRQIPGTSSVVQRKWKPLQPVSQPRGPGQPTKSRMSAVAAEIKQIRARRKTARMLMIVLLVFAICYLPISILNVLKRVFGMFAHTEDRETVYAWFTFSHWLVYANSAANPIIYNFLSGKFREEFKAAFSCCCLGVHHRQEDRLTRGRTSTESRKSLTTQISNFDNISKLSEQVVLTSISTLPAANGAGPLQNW

OX1R = biological target: T2, OX1R (Homo sapiens, UniProt O43613); test: OX1R potency as described in WO2016/034882; details: for IC50: read-out: OX1R IC50 (corresponds to pIC50) (converted)
T2 sequence (O43613 1-425): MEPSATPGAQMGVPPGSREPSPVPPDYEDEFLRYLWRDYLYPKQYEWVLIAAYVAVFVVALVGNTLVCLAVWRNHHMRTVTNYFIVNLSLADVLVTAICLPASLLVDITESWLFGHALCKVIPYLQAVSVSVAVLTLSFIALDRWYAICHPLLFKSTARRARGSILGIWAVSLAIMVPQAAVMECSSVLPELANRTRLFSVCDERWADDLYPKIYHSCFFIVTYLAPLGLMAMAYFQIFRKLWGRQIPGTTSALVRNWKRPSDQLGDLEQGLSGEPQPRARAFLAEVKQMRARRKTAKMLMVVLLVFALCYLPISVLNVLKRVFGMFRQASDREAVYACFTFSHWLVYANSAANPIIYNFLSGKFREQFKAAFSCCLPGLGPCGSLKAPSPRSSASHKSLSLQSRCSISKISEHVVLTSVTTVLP

OX2R [2] = biological target: T1, OX2R; test: OX2R potency as described in WO2016/034882; details: read-out: OX2R IC50 (corresponds to pIC50) (converted)

Q: What does the source list for `CC[C@@H](CNc1ncc(C(F)(F)F)cn1)N(C)C(=O)c1nc(C)ccc1-n1nccn1` [Ex 46 in WO2016/ 034882]?
A: OX2R pIC50 (OX2R [1]; Table 2 of WO2016/034882): < 5.0; OX2R pIC50 (OX2R [1]; Table 3 of WO2016/034882): < 5.0; OX2R IC50/OX1R IC50 (OX1R; Table 1 of WO2016/034882): 390; OX2R IC50/OX1R IC50 (OX1R; Table 2 of WO2016/034882): > 312; IC50 (OX1R; Table 2 of WO2016/034882): 32 nM; OX2R IC50/OX1R IC50 (OX1R; Table 3 of WO2016/034882): 3200; IC50 (OX1R; Table 3 of WO2016/034882): 3.2 nM; IC50 (OX2R [2]; Table 1 of WO2016/034882): 7800 nM; IC50 (OX2R [2]; Table 3 of WO2016/034882): ≥ 10000 nM

Q: Which “OX2R pIC50” value (OX2R [1]; Table 3 of WO2016/034882) does the source give for `CC[C@@H](CNc1ncc(C(F)(F)F)cn1)N(CC)C(=O)c1nc(C)ccc1-n1nccn1` [Ex 73 in WO2016/ 034882] here?
A: The value was < 6.0.
